Here are results for 1 compound from US20140162285A1, “Methods of Modulating Vesicular Trafficking” (The General Hospital Corporation, priority 2009, published 2014).

This assay addresses T1, Sec7-domain of ARNO (Homo sapiens, UniProt Q99418).
T1 construct: iii) 61-252aa, Sec7 domain; GST (N, cleaved yes); made in house; host or cells: E. coli BL21(DE3)
T1 sequence (Q99418 61-252): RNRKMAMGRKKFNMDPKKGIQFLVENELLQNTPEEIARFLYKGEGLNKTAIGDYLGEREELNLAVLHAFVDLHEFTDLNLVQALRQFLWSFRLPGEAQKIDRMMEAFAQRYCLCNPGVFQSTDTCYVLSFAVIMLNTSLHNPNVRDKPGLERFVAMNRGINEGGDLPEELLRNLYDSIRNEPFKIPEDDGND
In words: surface plasmon resonance (BIAcore T100) kinetic analysis a2N-01 peptide/Sec7-domain. The class given is binding. To be noted: ΔGbind=RTlnKD. An excerpt: 6A, Kinetic analysis and estimation of a dissociation constant (KD) for interaction between full-length a2N(wt) and ARNO(wt) proteins. Sensorgrams for the binding of recombinant a2N-6His immobilized as ligand on the sensor chip, with various concentrations of 6His-ARNO as analyte are shown as follows. The responses on the sensorgram are designated in resonance units (RU). […] 6B, Kinetic analysis and estimation of KD for interaction between a2N-01 peptide and Sec7-domain of ARNO. Sensorgrams for the binding of a2N-01 peptide immobilized as ligand on the sensor chip, with various concentrations of Sec7-domain as analyte are shown as follows. The responses on the sensorgram are designated in resonance units (RU).
All reagents, including buffers, sensor chips and the amine coupling kit, were obtained from GE Healthcare. […] Dissociation of the complexes was monitored for 10 min, and then the regeneration of the sensor surfaces was performed using 0.05% SDS with 1-min injection in the running buffer at a 20 μl/min flow rate. […] The dissociation constant (KD) was determined from the kon/koff values. To estimate affinity of interaction the corresponding free energy of binding ΔGbind=RTlnKD was calculated as previously described (Marles et al., Mol Cell 14 (2004) 813-823). […]

Structures are written as SMILES. Peptide text beside a SMILES is read from it. * marks the point of attachment. Biotin = O=C1N[C@H]2[C@H](CS[C@H]2CCCCC(=O)*)N1

For the compound `CSCC[C@H](NC(=O)CCCC[C@@H]1SC[C@@H]2NC(=O)N[C@@H]21)C(=O)NCC(=O)N[C@@H](CO)C(=O)N[C@@H](CC(C)C)C(=O)N[C@@H](Cc1ccccc1)C(=O)N[C@@H](CCCNC(=N)N)C(=O)N[C@@H](CO)C(=O)N[C@@H](CCC(=O)O)C(=O)N[C@@H](CO)C(=O)N[C@@H](CCSC)C(=O)N[C@@H](CS)C(=O)N[C@@H](CC(C)C)C(=O)N[C@@H](C)C(=O)N[C@@H](CCC(N)=O)C(=O)N[C@@H](CC(C)C)C(=O)N[C@@H](Cc1ccccc1)C(=O)N[C@@H](CC(C)C)C(=O)N[C@@H](CS)C(=O)O` [a2N-01, Bio-MGSLFRSE SMCLAQLFL-Cys] (Biotin-MGSLFRSESMCLAQLFLC-OH; N-terminus and C-terminus assumed), the “calculated free energy of binding” value was -8.81 kcal/mol.
